The numbers were not newly measured in patent US20250222007A1, “PREPARATION OF LOW MOLECULAR WEIGHT POLYLACTIC ACID AND THE USE THEREOF” (AL Andalous for Pharmaceutical Industries, priority 2023, published 2025), which cites them from elsewhere.

For one data set, the system named is lower conjunctival sac. As to conditions: 50 microliters instilled directly in the lower conjunctival sac.
The next data set concerns blind human eyes. As to conditions: 66% DMSO (with Tetryzoline) topically 4-8 times a day.
The next data set deals with rabbit eye. As to conditions: 0.2 ml/day of 100% DMSO (4 drops/day) for 6 months.
The conditions of data set [1]: dissolved in 0.1% DMSO, 20.5, 5, 10, 30, 40 micrograms.

Take `C[S+](C)[O-]` [DMSO, dimethyl sulfoxide]: the “eye irritation or conjunctival or corneal injury” value in the data set with lower conjunctival sac is recorded as “without any signs of eye irritation or conjunctival or corneal injury”. Besides, in the data set on blind human eyes, the “cases with a burning sensation” value was “only one case” and the “sensitivity to DMSO, epithelial damage, increase of IOP or keratitis” value was “None of any blind eyes evinced any evidence”. The “adverse effect in the eye” value in the data set on rabbit eye is recorded as “without any evidence of an adverse effect”.

With `Clc1ccc(COC(Cn2ccnc2)c2ccc(Cl)cc2Cl)c(Cl)c1` (centres unmarked) [miconazole], the “toxicity after intravitreal injection” value in data set [1] is “No toxicity was observed”.
